Assay results as given in publication PMC12036875, “Mitochondria-targeting natural product rhein conjugated with dichloroacetate as the dual inhibitor of glycolysis and oxidative phosphorylation to off energize cancer cells and induce ROS storm” (Theranostics, 2025).
Where two headings read alike, the source gives them in different places.

Tests used:
[1] = target: T1, PDK1 (Homo sapiens, UniProt O15530); assay: PDK1 kinase activity assay (ADP-Glo); format: biochemical; conditions: 0.08, 0.4, 2 μM; 30 min pre-incubation; effect of Rhein-DCA at 2 μM
T1 construct: purchased Promega Biotech Co., Ltd (USA)
T1 sequence (O15530 1-556): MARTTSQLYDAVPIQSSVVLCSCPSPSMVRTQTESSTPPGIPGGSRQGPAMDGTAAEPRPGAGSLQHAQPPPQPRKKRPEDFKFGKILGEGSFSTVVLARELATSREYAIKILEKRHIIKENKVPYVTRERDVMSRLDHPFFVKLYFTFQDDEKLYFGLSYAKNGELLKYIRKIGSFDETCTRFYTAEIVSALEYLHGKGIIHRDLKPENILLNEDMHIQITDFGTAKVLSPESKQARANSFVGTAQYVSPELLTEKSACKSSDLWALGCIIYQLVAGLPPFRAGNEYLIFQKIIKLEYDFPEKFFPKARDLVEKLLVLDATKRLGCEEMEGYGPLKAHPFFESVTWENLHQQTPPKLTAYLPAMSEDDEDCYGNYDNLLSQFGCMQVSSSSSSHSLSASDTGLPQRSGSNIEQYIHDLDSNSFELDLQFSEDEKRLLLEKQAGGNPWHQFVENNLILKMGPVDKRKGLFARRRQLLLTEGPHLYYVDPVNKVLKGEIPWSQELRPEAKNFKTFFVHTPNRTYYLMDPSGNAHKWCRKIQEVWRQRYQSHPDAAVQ
Description: The elevated glycolytic metabolism in cancer cells would be blocked when the activity of the gate enzyme PDH was resumed through inhibiting overexpression of PDK1, followed by a decrease in lactate and energy production (Figure 2A). ADP-Glo^TM Kinase assay was initially employed to investigate the potential of Rhein-DCA conjugate to suppress PDK1 activity in vitro. PDK1 were separately incubated with rhein, DCA, and Rhein-DCA conjugate for 30 min for better binding, then the enzymatic substrate was added to the mixture to initiate the reaction. Finally, the luminescent signal representing PDK1 activity was recorded once the detection procedures were completed. More detailed experimental information was presented in the supporting information.
The inhibitory effect of PDK1 kinase was evaluated with the […] kinase assay. Firstly, PDK1 enzyme, PDK tide, ATP, and indicated drugs (dissolved in DMSO) were dissolved in kinase buffer. Then, 5 μL of compounds (rhein, DCA and Rhein-DCA) with diverse concentrations and 10 μL of PDK1 enzyme were dispensed to the 96-well plate and incubated for 30 min at room temperature. Next, 10 μL of PDK tide/ATP mixture was added and incubated at room temperature for 60 min. Finally, to halt the reaction and deplete the remaining ATP, 25 μL of ADP-Glo™ reagent was added to each well and incubated at room temperature for 40 min. 50 μL of kinase detection reagent was added and incubated at room temperature for another 30 min. Ultimately, the luminescence signal was recorded by multi-mode microplate reader (Integration time: 1 s). The concentrations of reagents employed in this assay were as follows: […]

[2] = test system: 4T1 cells; assay: Scratch (migration) assay; format: cell-based, Mouse; conditions: 6.25 μM, 24 h
Description: Cellular migration is the pivotal characteristic of cancer metastasis. […] Considering the inhibition of the glycolysis pathway resulting in a decrease of lactate, we studied the migration behavior of aggressive 4T1 cells in vitro. The results of scratch assay were shown in Figure S15, after being treated with different drugs for 24 h, the wound borders of 4T1 cells gradually got closer in control, rhein, DCA and R + D groups, and the migration rates reached approximately 40%.
4T1 cells were seeded in 6-well plate and incubated for 24 h. A straight scratch line across the cell monolayer was marked at the bottom of the plate with 200 μL pipette tip. Plate was washed twice with PBS to remove the detached cells. 6.25 μM of indicated drugs were added into each well, then the wound borders of cells were imaged at 0 h, 12 h and 24 h, respectively. The migration rate was calculated as follows: migration rate (%) = (initial scratch area - final scratch area) / initial scratch area × 100%, and the scratch area was processed with the Image J derivatives Fiji software.

[3] = test system: 293T cells; assay: MTT cytotoxicity assay, normal cells; format: cell-based; conditions: Homo sapiens, HEK-293T, read-out: IC50 293T
Description: The cytotoxicity of Rhein-DCA conjugate was performed on various cancer cell lines, including breast cancer (4T1 and MCF-7), cervical cancer (HeLa), and colorectal carcinoma (CT26) via 3-(4,5)-dimethylthiahiazo(-z-y1)-3,5-di-phenytetrazoliumromide (MTT) assay. […] Moreover, the cytotoxicity of these compounds (rhein, DCA, R + D and Rhein-DCA) for normal cells (293T) was lower than that of those tested cancer cells.
Mouse breast cancer 4T1 cells and Mouse colorectal carcinoma CT26 cells were purchased from Haixing Biosciences Co., Ltd (Jiangsu, P. R. China), and cultured in complete RPMI-1640 medium supplemented with 10% FBS and 1% Penicillin / Streptomycin in a cell incubator (37 °C in 95% air and 5% CO2 atmosphere). Human breast cancer MCF-7 cells, Human cervical carcinoma HeLa cells and Human embryonic kidney 293T cells were obtained from the China Center for Type Culture Collection (CCTCC). MCF-7 and HeLa cells were cultured in DMEM medium containing 10% FBS and 1% Penicillin / Streptomycin and then cultured in a cell incubator (37 °C in 95% air and 5% CO2 atmosphere).
The cytotoxicity of rhein, DCA, the mixture of rhein and DCA (R + D) and Rhein-DCA conjugate was evaluated on HeLa, MCF-7, CT26, 4T1 and 293T cell lines by MTT assay. Cells were seeded in 96-well plates at a density of 3 × 10^3 cells per well in the corresponding complete culture medium and cultured for 24 h. Then cells were incubated with 200 μL fresh medium containing the respective desired concentrations of rhein, DCA, R + D (with the concentrations being 100, 66.7, 44.4, 29.6, 19.8, 13.2, 8.8, 5.9, 3.9, 2.6, 1.7 and 1.2 μM, respectively) and Rhein-DCA conjugate (with the concentrations being 29.6, 19.8, 13.2, 8.8, 5.9, 3.9, 2.6, 1.7, 1.2, 0.8, 0.5 and 0.3 μM, respectively). After 72 h of incubation, 20 μL of MTT solution (5 mg/mL) was added to each well and the plates were cultured for another 4 h. The medium was carefully removed, and 110 μL of DMSO was added into per well to dissolve the formazan. The absorption densities at 590 nm were recorded with microplate reader. […]

[4] = 72 h treatment, MTT, normal cells, mean ± S.D., n = 3

SMILES	PDK1 activity (luminescent signal) [1]	migration rate [2]	IC50 ([3]; 72 h)	IC50 [3, 4]
O=C(O)C(Cl)Cl [DCA, Dichloroacetate]	did not exhibit obvious differences	approximately 40%	> 100 µM	
O=C(O)c1cc(O)c2c(c1)C(=O)c1cccc(O)c1C2=O [Rhein, 4,5-dihydroxyanthraquinone-2-carboxylic acid]	almost negligible	approximately 40%		126 ± 13.6 µM
O=C(OCCOC(=O)C(Cl)Cl)c1cc(O)c2c(c1)C(=O)c1cccc(O)c1C2=O [Rhein-DCA]	dramatically decreased	8%		11.7 µM
